Results from paper PMC7921063, “The Effects of Genetic Mutations and Drugs on the Activity of the Thiamine Transporter, SLC19A2” (The AAPS Journal, 2021).
Read-outs that look alike come from different tables or passages of the source.

How the values were obtained:
SLC19A2 [1] = target: T1, SLC19A2 (Homo sapiens, UniProt O60779); assay: IC50 assays for inhibition of SLC19A2-mediated thiamine uptake; type: cell-based; set-up: host or cells: HEK293, stably overexpressing SLC19A2 and transiently transfected with a further 500 ng wild-type plasmid; conditions: inhibitor 0 to 1 mM, HEK293
T1 sequence (O60779 1-497): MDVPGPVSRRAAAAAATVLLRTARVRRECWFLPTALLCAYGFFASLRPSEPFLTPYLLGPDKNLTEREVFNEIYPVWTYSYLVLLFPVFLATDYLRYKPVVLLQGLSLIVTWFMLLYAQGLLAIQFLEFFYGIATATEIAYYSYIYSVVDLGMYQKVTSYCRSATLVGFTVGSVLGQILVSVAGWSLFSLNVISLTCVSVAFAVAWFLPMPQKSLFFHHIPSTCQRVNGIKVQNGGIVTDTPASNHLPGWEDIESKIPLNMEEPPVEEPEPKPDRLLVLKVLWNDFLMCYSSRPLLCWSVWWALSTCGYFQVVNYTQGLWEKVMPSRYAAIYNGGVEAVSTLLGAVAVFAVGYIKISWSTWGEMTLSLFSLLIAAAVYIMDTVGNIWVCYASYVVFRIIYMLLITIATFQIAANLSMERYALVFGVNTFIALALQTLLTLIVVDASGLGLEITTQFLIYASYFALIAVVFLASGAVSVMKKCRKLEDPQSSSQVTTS
Method: (§1) Plasmids encoding wild-type SLC19A2 and three TRMA-associated variants were generated by Genscript Inc. (Piscataway, USA). Methods for generation of stably overexpressing SLC19A2 cell lines and uptake studies have been previously described ([11], [12]). Inhibition and kinetic studies were performed in SLC19A2-overexpressing stable HEK293 cells transiently transfected with an additional 500 ng of SLC19A2 wild-type plasmid.
(§2) Prescription drugs associated with MA ([2]) in addition to others belonging to listed drug classes (e.g., proton-pump inhibitors; 63 compounds total) were screened in triplicate at 1 mM to evaluate inhibitory activity against SLC19A2. The screen was performed using [^3H]-thiamine (25 nM). Each plate contained control wells exposed for 10 min (within linear range, Supplemental Figure 1) to [^3H]-thiamine (positive control), [^3H]-thiamine plus 1 mM of amprolium (negative control), and [^3H]-thiamine plus 1 mM of screened drug (3 replicates per drug). Methods have been previously described ([11]). SLC19A2 inhibitors were defined as compounds that decreased SLC19A2-mediated thiamine uptake by 50% or more at 1 mM. For compounds that met this definition, inhibition assays were conducted and IC50 values were calculated by nonlinear fitting using GraphPad Prism 7 (La Jolla, CA) ([11]).
Fig. 4 Drug screen and potency studies against SLC19A2-mediated thiamine uptake. In the screen, SLC19A2 inhibitors were defined as compounds that inhibit at least 50% of thiamine uptake compared to the positive control. The positive control was thiamine uptake in the absence of inhibitor. Out of the 63 drugs screened, ten reached that threshold. Of the ten drugs, three (fedratinib, amprolium, and trimethoprim) have IC50 values published in literature (a). […] Figures representative of 3 independent experiments except for pantoprazole

SLC19A2 [2] = target: T1, SLC19A2; assay: SLC19A2 inhibitor screen: [3H]-thiamine uptake in SLC19A2-overexpressing HEK293 cells; type: cell-based; set-up: host or cells: HEK293, stably overexpressing SLC19A2 and transiently transfected with a further 500 ng wild-type plasmid; conditions: HEK293, 10 min; for remaining activity at 1000 µM: drug 1 mM, [3H]-thiamine 25 nM, 10 min, HEK293 cells expressing SLC19A2, relative to uptake without inhibitor, read-out: Average % SLC19A2 thiamine uptake; for inhibition at 1000 µM: at 1 mM, read-out: reduction in thiamine transport (designated SLC19A2 inhibitor)
Method: as §1
as §2, with “The screen was performed using [^3H]-thiamine (25 nM).” left out
Fig. 3 Common mechanisms of drug-induced megaloblastic anemia and SLC19A2 inhibitor drug screen workflow. A list of drugs associated with inducing megaloblastic anemia through various mechanisms was compiled (a). Each drug was dissolved to a final concentration of 1 mM in buffer containing radiolabeled [^3H] thiamine and exposed to HEK293 cells expressing SLC19A2 wild-type transporter for 10 min.

[3] = fraction unbound in plasma, human; ref Table I (PMIDs, package inserts); cited from earlier work
[4] = set-up: method as in Reference column of Table I (PMIDs, package inserts); conditions: maximum plasma concentration, human; ref Table I (PMIDs, package inserts); cited from earlier work
human TPK1 = human TPK1 (Homo sapiens, UniProt Q9H3S4); assay: TPK1 enzyme assay (AMP-Glo luminescence), substrate test; type: biochemical; conditions: 1 mM compound, 15 μg human TPK, 500 μM ATP, 30 min, 37 °C
Method: Methods detailing thiamine pyrophosphokinase 1 (TPK1) enzyme assay development and execution are listed in Supplemental Figure 2 legend.
To determine if the top compounds in the SLC19A2 inhibitor screen (i.e., erythromycin, omeprazole) were substrates of human TPK1, we measured the level of adenosine monophosphate (AMP) generated in a TPK1 enzyme reaction using AMP-Glo™ Assay (Promega).
Luminescence was measured as a proxy for AMP production in human TPK1 reactions exposed to the following compounds: omeprazole 1mM (OME), erythromycin 1mM (ERY), thiamine 1mM (positive control or PC), and no substrate (negative control or NC). Reactions were comprised of 0.5 mL enzyme reaction mixture containing 100 μM MgCl2, 500 μM ATP, pH 7.4, 15 μg of human TPK and 1 mM of tested substrate incubated for 30 min at 37 °C. A negative control reaction was also prepared without added enzyme. Luminescence was measured with a GloMax luminometer (Promega). […] For omeprazole, the signal was not statistically different from the negative control (student’s t-test, p-value = 0.72). Figure representative of 3 independent experiments.

SLC19A2 [5] = target: T1, SLC19A2; assay: Predicted risk of SLC19A2-mediated clinical drug-drug interaction (FDA criteria); set-up: host or cells: HEK293, stably overexpressing SLC19A2 and transiently transfected with a further 500 ng wild-type plasmid; conditions: (fu*Cmax)/IC50 > 0.1
Text: Clinical pharmacokinetic data from human studies ([13]–[18]) and drug monograph databases (e.g., Micromedex, FDA) were used to obtain Cmax (maximum plasma concentration) and fu (fraction of drug unbound in the plasma).

SLC19A2 [6] = target: T1, SLC19A2; conditions: IC50 published in literature, ref PMID: 27803021; cited from earlier work
wild-type SLC19A2 = target: T2, wild-type SLC19A2 (Homo sapiens, UniProt O60779); assay: Thiamine transport by wild-type SLC19A2 in transiently transfected HEK293 cells with inhibitor; type: cell-based; conditions: 200 μM inhibitor
T2 construct: host or cells: HEK293, transiently transfected
T2 sequence (O60779 1-497): T1 sequence (O60779 1-497)
Method: as §1
Fig. 2 Function and expression of TRMA-associated SLC19A2 variants, and the effects of two prescription drugs on SLC19A2-mediated thiamine uptake. […] Figures representative of 3 separate experiments (a). Membrane localization of GFP-tagged SLC19A2 variants. To determine TRMA variant membrane expression, constructs encoding SLC19A2 wild-type and TRMA variants were GFP-tagged and transfected in HEK293 cells. Nuclei were stained with Hoechst 33342 dye (blue) and cells were visualized with confocal microscopy (b)

Sequence of human TPK1 (Q9H3S4 whole entry): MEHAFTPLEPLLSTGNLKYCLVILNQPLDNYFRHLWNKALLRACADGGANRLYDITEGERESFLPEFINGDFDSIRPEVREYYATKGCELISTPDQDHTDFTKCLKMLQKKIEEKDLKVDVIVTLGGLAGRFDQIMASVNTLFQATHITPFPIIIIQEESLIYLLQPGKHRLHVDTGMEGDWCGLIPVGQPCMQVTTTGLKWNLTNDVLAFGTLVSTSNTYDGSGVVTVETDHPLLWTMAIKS

SMILES | remaining activity at 1000 µM (SLC19A2 [2]) | inhibition at 1000 µM (SLC19A2 [2]) | wild-type SLC19A2 thiamine transport activity (wild-type SLC19A2) | IC50 (SLC19A2 [1]) | fu [3] | Cmax [4] | Luminescent signal (AMP production) in TPK1 reaction versus negative control (human TPK1) | FDA criteria for clinically relevant transporter inhibition, unbound Cmax/IC50 (SLC19A2 [5]) | IC50 (SLC19A2 [6])
COc1ccc2[nH]c([S+]([O-])Cc3ncc(C)c(OC)c3C)nc2c1 (stereo not drawn) [Omeprazole] | 26.6% | ≥ 50% |  | 207 µM | 0.05 (label) | 1000 to 10000 nM | statistically similar to the negative control |  | 
N=C(N)NC(=O)c1nc(Cl)c(N)nc1N [Amiloride] | 44.8% | ≥ 50% |  | 69 µM | 0.77 | 40 nM |  |  | 
CC[C@H]1OC(=O)[C@H](C)[C@@H](O[C@H]2C[C@@](C)(OC)[C@@H](O)[C@H](C)O2)[C@H](C)[C@@H](O[C@@H]2O[C@H](C)C[C@H](N(C)C)[C@H]2O)[C@](C)(O)C[C@@H](C)C(=O)[C@H](C)[C@@H](O)[C@]1(C)O [Erythromycin] | 29.8% | ≥ 50% |  | 20 µM | 0.1-0.3 | 2300 to 9600 nM | significantly higher than the negative control signal | met the FDA’s criteria for clinically relevant transporter inhibition | 
CCN(CC)CCCC(C)Nc1ccnc2cc(Cl)ccc12 (stereo not drawn) [Chloroquine] |  |  |  | 301 µM | 0.36-0.39 | 3.4 nM |  |  | 

Further lines, with some results ahead:

remaining activity at 1000 µM (SLC19A2 [2]) | inhibition at 1000 µM (SLC19A2 [2]) | wild-type SLC19A2 thiamine transport activity (wild-type SLC19A2) | SMILES | IC50 (SLC19A2 [1]) | fu [3] | Cmax [4] | Luminescent signal (AMP production) in TPK1 reaction versus negative control (human TPK1) | FDA criteria for clinically relevant transporter inhibition, unbound Cmax/IC50 (SLC19A2 [5]) | IC50 (SLC19A2 [6])
46.5% | ≥ 50% |  | COc1ccnc(C[S+]([O-])c2nc3ccc(OC(F)F)cc3[nH]2)c1OC (stereo not drawn) [Pantoprazole] | 429 µM | 0.02 (label) | 6500 nM |  |  | 
32.8% | ≥ 50% |  | COc1c(C)c2c(c(O)c1C/C=C(\C)CCC(=O)OCCN1CCOCC1)C(=O)OC2 [Mycophenolate mofetil] | 145 µM | 0.03 (label) | < 900 nM |  |  | 
31.7% | ≥ 50% | abolished | COc1cc(Cc2cnc(N)nc2N)cc(OC)c1OC [Trimethoprim] |  |  | 3440 nM |  |  | 6.84 µM
29.1% | ≥ 50% | abolished | CCCc1ncc(C[n+]2ccccc2C)c(N)n1 [Amprolium] |  |  |  |  |  | 
